Data: ChEMBL document CHEMBL1133817, “Discovery of novel, orally active dual NK1/NK2 antagonists” (Bioorg Med Chem Lett, 2001)
Active and inactive are the calls of the source. The rule behind the calls is not given here.

Assays:
[1] = molecular target: T1, Substance-K receptor (Oryctolagus cuniculus) (UniProt P79218); assay: Binding constant towards Tachykinin receptor 2 using BANK as agonist on rabbit pulmonary artery tissues.
T1 sequence (whole entry): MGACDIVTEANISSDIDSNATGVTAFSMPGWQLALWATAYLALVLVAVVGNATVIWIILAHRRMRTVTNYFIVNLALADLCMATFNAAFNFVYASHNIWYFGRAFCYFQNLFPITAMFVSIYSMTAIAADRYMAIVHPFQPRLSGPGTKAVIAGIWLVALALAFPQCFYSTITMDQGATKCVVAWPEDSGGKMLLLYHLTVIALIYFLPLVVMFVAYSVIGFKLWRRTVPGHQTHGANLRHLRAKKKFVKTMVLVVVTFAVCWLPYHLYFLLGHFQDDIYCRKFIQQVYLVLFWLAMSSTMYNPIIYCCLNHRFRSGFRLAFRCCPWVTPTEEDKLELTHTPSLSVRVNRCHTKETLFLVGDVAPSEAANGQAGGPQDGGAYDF

[2] = tested on: Substance-P receptor (Oryctolagus cuniculus); assay: Binding constant towards tachykinin receptor 1 using ASMSP as agonist on rabbit pulmonary artery tissues.
[3] = molecular target: T2, Substance-P receptor (Homo sapiens, UniProt P25103); details: Artery
T2 sequence (P25103 whole entry): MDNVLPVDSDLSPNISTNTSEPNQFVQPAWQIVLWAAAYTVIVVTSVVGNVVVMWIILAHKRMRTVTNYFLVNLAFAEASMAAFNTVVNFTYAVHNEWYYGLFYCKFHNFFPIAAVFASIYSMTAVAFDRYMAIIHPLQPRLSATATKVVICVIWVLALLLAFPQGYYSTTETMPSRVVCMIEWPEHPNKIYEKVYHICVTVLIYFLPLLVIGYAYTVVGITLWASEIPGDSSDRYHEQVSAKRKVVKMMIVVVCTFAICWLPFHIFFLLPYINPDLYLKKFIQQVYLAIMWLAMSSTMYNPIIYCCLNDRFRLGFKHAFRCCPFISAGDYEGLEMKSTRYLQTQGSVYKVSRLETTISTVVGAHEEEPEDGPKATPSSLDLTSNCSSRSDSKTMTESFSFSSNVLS
Description: (§1) Binding constant towards Tachykinin receptor 1 using ASMSP as agonist on human pulmonary artery tissues

[4] = molecular target: T3, Substance-K receptor (Homo sapiens) (UniProt P21452); details: Bronchus
T3 sequence (whole entry): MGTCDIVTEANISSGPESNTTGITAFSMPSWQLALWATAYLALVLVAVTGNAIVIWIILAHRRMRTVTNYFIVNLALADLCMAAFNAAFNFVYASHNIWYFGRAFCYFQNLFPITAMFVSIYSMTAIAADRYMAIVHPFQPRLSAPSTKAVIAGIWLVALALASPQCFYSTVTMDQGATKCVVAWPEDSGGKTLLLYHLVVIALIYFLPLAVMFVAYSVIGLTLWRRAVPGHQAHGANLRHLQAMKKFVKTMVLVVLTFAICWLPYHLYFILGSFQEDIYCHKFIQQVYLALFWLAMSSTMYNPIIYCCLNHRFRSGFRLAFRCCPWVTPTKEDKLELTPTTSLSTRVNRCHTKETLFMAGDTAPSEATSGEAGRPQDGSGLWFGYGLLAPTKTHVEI
Description: Binding constant towards Tachykinin receptor 2 using NKA as agonist on human bronchus

[5] = molecular target: T1, Substance-K receptor (Oryctolagus cuniculus); assay: Binding constant towards Tachykinin receptor 2 using BANK as agonist on rabbit pulmonary artery tissues; NA is not active
[6] = molecular target: T2, Substance-P receptor; details: Oryctolagus cuniculus; Artery
Description: Binding constant towards Tachykinin receptor 1 using ASMSP as agonist on rabbit pulmonary artery tissues; NA is not active

[7] = molecular target: T4, Neuromedin-K receptor (Homo sapiens, UniProt P29371); assay: Binding affinity against human cloned Tachykinin receptor 3 expressed in MEL cells; assay type: cell-based
T4 sequence (P29371 whole entry): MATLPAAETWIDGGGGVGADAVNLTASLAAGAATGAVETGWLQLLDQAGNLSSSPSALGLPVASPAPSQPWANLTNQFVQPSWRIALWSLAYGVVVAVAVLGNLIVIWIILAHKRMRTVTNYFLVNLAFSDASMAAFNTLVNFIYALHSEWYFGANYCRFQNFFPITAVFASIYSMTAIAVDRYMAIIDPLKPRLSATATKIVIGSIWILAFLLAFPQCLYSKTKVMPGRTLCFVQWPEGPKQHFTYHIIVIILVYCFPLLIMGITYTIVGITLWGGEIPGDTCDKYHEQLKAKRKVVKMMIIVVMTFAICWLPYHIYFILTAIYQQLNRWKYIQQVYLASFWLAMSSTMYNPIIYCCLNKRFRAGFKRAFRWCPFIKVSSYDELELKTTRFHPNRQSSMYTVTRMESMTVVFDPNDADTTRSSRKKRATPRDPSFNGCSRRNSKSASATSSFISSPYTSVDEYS

[8] = molecular target: T2, Substance-P receptor; assay: Binding affinity against human cloned Tachykinin receptor 1 expressed in MEL cells; assay type: cell-based
[9] = molecular target: T5, Substance-K receptor (Homo sapiens, UniProt P21452); assay: Binding affinity against human cloned Tachykinin receptor 2 expressed in MEL cells; assay type: cell-based
T5 sequence (P21452 whole entry): T3 sequence (whole entry)

[10] = molecular target: T2, Substance-P receptor; details: Artery; remark: listed apart in the source
Description: as §1

| SMILES | pKB [1] | pKB [2] | other results |
| --- | --- | --- | --- |
| C=C(C)c1cc(C(=O)N(C)C[C@@H](CCN2CCC(c3ccccc3[S+](C)[O-])CC2)c2ccc(Cl)c(Cl)c2)c2ccccc2c1 (some centres not stated) | 7.24 | 7.24 |  |
| CN(C[C@@H](CCN1CCC(O)(c2ccccc2[S+](C)[O-])CC1)c1ccc(Cl)c(Cl)c1)C(=O)c1cccc2ccccc12 (some centres not stated) | 7.32 | 7.3 |  |
| CN(C[C@@H](CCN1CCC(c2ccccc2[S@+](C)[O-])CC1)c1ccc(Cl)c(Cl)c1)C(=O)c1cc(C#N)cc2ccccc12 (stereo in doubt) | 8.26 |  | pKB [3]: 8.9; pKB [4]: 7.5 |
| CC(=O)NC1(c2ccccc2)CCN(CC[C@H](CN(C)C(=O)c2ccccc2)c2ccc(Cl)c(Cl)c2)CC1 | 9.3 |  |  |
| CN(C[C@@H](CCN1CCC(c2ccccc2[S+](C)[O-])CC1)c1ccc(Cl)c(Cl)c1)C(=O)c1cc(S(N)(=O)=O)cc2ccccc12 (some centres not stated) | 7.02 | 7.54 |  |
| CN(C[C@@H](CCN1CCC(c2ccccc2[S@+](C)[O-])CC1)c1ccc(Cl)c(Cl)c1)C(=O)c1cc(C#N)cc2ccccc12 (stereo in doubt; 4b) | 8.39 |  |  |
| CN(C)C(=O)c1cc(C(=O)N(C)C[C@@H](CCN2CCC(c3ccccc3[S+](C)[O-])CC2)c2ccc(Cl)c(Cl)c2)c2ccccc2c1 (some centres not stated) | 7.31 | 5.17 |  |
| CN(C[C@@H](CCN1CCC(O)(c2ccc([S+](C)[O-])cc2)CC1)c1ccc(Cl)c(Cl)c1)C(=O)c1cccc2ccccc12 (some centres not stated) | 7.54 | 6.92 |  |
| CCN1C(=O)c2ccccc2[C@H]1[C@@H](CCN1CCC(c2ccccc2[S@+](C)[O-])CC1)c1ccc(Cl)c(Cl)c1 | 8.8 |  |  |
| CN(C[C@@H](CCN1CCC(c2ccccn2)CC1)c1ccc(Cl)c(Cl)c1)C(=O)c1cccc2ccccc12 |  | 6.98 | pKB [5]: inactive |
| CN(C[C@@H](CCN1CCC(c2ccccc2[S+](C)[O-])CC1)c1ccc(Cl)c(Cl)c1)C(=O)c1cccc2ccccc12 (some centres not stated) | 8.18 | 7.89 |  |
| CN(C[C@@H](CCN1CCC(c2ccccc2[S+](C)[O-])CC1)c1ccc(Cl)c(Cl)c1)C(=O)c1cc(CC#N)cc2ccccc12 (some centres not stated) | 6.99 | 8.42 |  |
| CN(C[C@@H](CCN1CCC(c2ccccc2[S+](C)[O-])CC1)c1ccc(Cl)c(Cl)c1)C(=O)c1cc(S(C)(=O)=O)cc2ccccc12 (some centres not stated) | 7.35 | 7.43 |  |
| CN(C[C@@H](CCN1CCC(c2ccc([S+](C)[O-])cc2)CC1)c1ccc(Cl)c(Cl)c1)C(=O)c1cccc2ccccc12 (some centres not stated) | 6.76 | 7.4 |  |
| CN(C[C@@H](CCN1CCC(c2ccccc2[S+](C)[O-])CC1)c1ccc(Cl)c(Cl)c1)C(=O)c1cc(F)cc2ccccc12 (some centres not stated) | 8.15 | 7.9 |  |
| CN(C[C@H](CCN1CCC(c2ccccc2[S+](C)[O-])CC1)c1ccc(Cl)c(Cl)c1)C(=O)c1cc(C#N)cc2ccccc12 (some centres not stated) | 7.1 |  | pKB [6]: inactive |
| CN(C[C@@H](CCN1CCC(c2ccccc2[S+](C)[O-])CC1)c1ccc(Cl)c(Cl)c1)C(=O)c1cccc2cc(C#N)ccc12 (some centres not stated) | 7.62 | 8.55 |  |
| CN(C[C@@H](CCN1CCC2(CC1)C[S+]([O-])c1ccccc12)c1ccc(Cl)c(Cl)c1)C(=O)c1cccc2ccccc12 (some centres not stated) | 8.1 | 6.98 |  |
| COc1cc(C(=O)N(C)C[C@@H](CCN2CCC(c3ccccc3[S+](C)[O-])CC2)c2ccc(Cl)c(Cl)c2)c2ccccc2c1 (some centres not stated) | 7.7 | 7.95 |  |
| CN(C[C@@H](CCN1CCC(N2CCCNC2=O)CC1)c1ccc(Cl)c(Cl)c1)C(=O)c1cccc2ccccc12 | 7.92 | 7.34 |  |

| SMILES | pKB [1] | pKB [2] | other results |
| --- | --- | --- | --- |
| CNC(=O)C1(N2CCCNC2=O)CCN(CC[C@H](CN(C)C(=O)c2cccc3ccccc23)c2ccc(Cl)c(Cl)c2)CC1 | 8.41 | 6.82 |  |
| CN(C[C@@H](CCN1CCC(c2ccccc2[S+](C)[O-])CC1)c1ccc(Cl)c(Cl)c1)C(=O)c1ccc(C#N)c2ccccc12 (some centres not stated) | 7.34 | 6.31 |  |
| CN(C[C@@H](CCN1CCC(c2cccnc2[S+](C)[O-])CC1)c1ccc(Cl)c(Cl)c1)C(=O)c1cccc2ccccc12 (some centres not stated) | 7.82 | 7.69 |  |
| CN(C[C@@H](CCN1CCC(c2ccccc2[S+](C)[O-])CC1)c1ccc(Cl)c(Cl)c1)C(=O)c1cccc2ccc(C#N)cc12 (some centres not stated) | 8.51 | 8.13 |  |
| CN(C[C@@H](CCN1CCC(N2C(=O)CCCC2=O)CC1)c1ccc(Cl)c(Cl)c1)C(=O)c1cccc2ccccc12 |  | 6.28 | pKB [5]: inactive |
| CN(C[C@@H](CCN1CCC(c2ccccc2[S+](C)[O-])CC1)c1ccc(Cl)c(Cl)c1)C(=O)c1cc(C(=O)O)cc2ccccc12 (some centres not stated) | 6.86 | 5.68 |  |
| CN(C)C(=O)C1(N2CCCCC2=O)CCN(CC[C@H](CN(C)C(=O)c2cccc3ccccc23)c2ccc(Cl)c(Cl)c2)CC1 | 8.23 | 6.78 |  |
| CN(C[C@@H](CCN1CCC(c2ccccc2C(F)(F)F)CC1)c1ccc(Cl)c(Cl)c1)C(=O)c1cccc2ccccc12 |  | 6.03 | pKB [5]: inactive |
| CC(=O)c1cc(C(=O)N(C)C[C@@H](CCN2CCC(c3ccccc3[S+](C)[O-])CC2)c2ccc(Cl)c(Cl)c2)c2ccccc2c1 (some centres not stated) | 7.17 | 7.41 |  |
| Cc1cc(C(=O)N(C)C[C@@H](CCN2CCC(c3ccccc3[S+](C)[O-])CC2)c2ccc(Cl)c(Cl)c2)c2ccccc2c1 (some centres not stated) | 7.29 | 8.03 |  |
| COc1cc(C(=O)N2CC[C@](CCN3CCC(C(N)=O)(c4ccccc4)CC3)(c3ccc(Cl)c(Cl)c3)C2)cc(OC)c1OC | 6.7 |  | Ki [7]: 200 nM; Ki [8]: 0.3 nM; Ki [9]: 1 nM; pKB [10]: 6.9; pKB [4]: 6.4 |
| CNC(=O)c1ccccc1C1CCN(CC[C@H](CN(C)C(=O)c2cccc3ccccc23)c2ccc(Cl)c(Cl)c2)CC1 | 8.21 | 7.3 |  |
| CNC(=O)C1(N2CCCCC2=O)CCN(CC[C@H](CN(C)C(=O)c2cccc3ccccc23)c2ccc(Cl)c(Cl)c2)CC1 | 8.44 | 6.42 |  |
| CC(=O)NC1(c2ccccc2)CCN(CC[C@H](CN(C)C(=O)c2cccc3ccccc23)c2ccc(Cl)c(Cl)c2)CC1 | 8.18 | 7.18 |  |
| CN(C[C@@H](CCN1CCC(c2ccccc2[S+](C)[O-])CC1)c1ccc(Cl)c(Cl)c1)C(=O)c1cc(C(F)(F)F)cc2ccccc12 (some centres not stated) | 6.45 | 7.84 |  |
| CN(C[C@@H](CCN1CCC(c2ccccc2[S+](C)[O-])CC1)c1ccc(Cl)c(Cl)c1)C(=O)c1cc(Cl)cc2ccccc12 (some centres not stated) | 7.1 | 7.15 |  |
| CN(C[C@@H](CCN1CCC(c2ccccc2[S+](C)[O-])CC1)c1ccc(Cl)c(Cl)c1)C(=O)c1cc(Br)cc2ccccc12 (some centres not stated) | 7.67 | 8.15 |  |
| CN(C[C@@H](CCN1CCC(c2ccccc2S(C)(=O)=O)CC1)c1ccc(Cl)c(Cl)c1)C(=O)c1cccc2ccccc12 | 7.55 | 7.81 |  |
| C#Cc1cc(C(=O)N(C)C[C@@H](CCN2CCC(c3ccccc3[S+](C)[O-])CC2)c2ccc(Cl)c(Cl)c2)c2ccccc2c1 (some centres not stated) | 7.44 | 7.71 |  |
| CN(C[C@@H](CCN1CCC(c2ccccc2[S+](C)[O-])CC1)c1ccc(Cl)c(Cl)c1)C(=O)c1cc([N+](=O)[O-])cc2ccccc12 (some centres not stated) | 9.03 | 8.16 |  |
